Assay results published in PubChem BioAssay AID330 (DTP/NCI, 2004).
Values joined by “and” are separate entries in the source; they are usually repeats but may differ in a detail not shown here. Identical values can stand only once. Toxic doses and inconclusive results are not listed. The calls were made as follows: active = survival T/C of 150% or more; inactive = T/C below 125% in these data.

System: P388 leukemia ip, CD2F1 mice, survival T/C
Assay: NCI In Vivo Anticancer Drug Screen. Data for tumor model P388 Leukemia (intraperitoneal) in CD2F1 (CDF1) mice
Conditions: endpoint: median survival time, higher = longer survival
Outline: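 Mice carrying the transplanted tumor received test compound or vehicle. Survival was recorded in each group, and the value is the treated-group measurement divided by that of the vehicle-treated control group.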

[1] = dose: 50.0 mg/kg/injection, schedule: Q01DX005 (ip), vehicle: Klucel (hydroxypropylcellulose) (HPC)
[2] = dose: 100.0 mg/kg/injection, schedule: Q01DX005 (ip), vehicle: Klucel (hydroxypropylcellulose) (HPC)
[3] = dose: 200.0 mg/kg/injection, schedule: Q01DX005 (ip), vehicle: Klucel (hydroxypropylcellulose) (HPC)
[4] = dose: 50.0 mg/kg/injection, schedule: Q01DX005 (ip), vehicle: saline with Tween-80
[5] = dose: 100.0 mg/kg/injection, schedule: Q01DX005 (ip), vehicle: saline with Tween-80
[6] = dose: 200.0 mg/kg/injection, schedule: Q01DX005 (ip), vehicle: saline with Tween-80
[7] = dose: 60.0 mg/kg/injection, schedule: Q01DX005 (ip), vehicle: saline with Tween-80
[8] = dose: 120.0 mg/kg/injection, schedule: Q01DX005 (ip), vehicle: saline with Tween-80
[9] = dose: 50.0 mg/kg/injection, schedule: Q01DX009 (ip), vehicle: saline with Tween-80
[10] = dose: 100.0 mg/kg/injection, schedule: Q01DX009 (ip), vehicle: saline with Tween-80
[11] = dose: 200.0 mg/kg/injection, schedule: Q01DX009 (ip), vehicle: saline with Tween-80
[12] = dose: 400.0 mg/kg/injection, schedule: Q01DX009 (ip), vehicle: saline with Tween-80
[13] = dose: 100.0 mg/kg/injection, schedule: Q01DX009 (ip), vehicle: saline
[14] = dose: 200.0 mg/kg/injection, schedule: Q01DX009 (ip), vehicle: saline
[15] = dose: 400.0 mg/kg/injection, schedule: Q01DX009 (ip), vehicle: saline
[16] = dose: 6.25 mg/kg/injection, schedule: Q01DX009 (ip), vehicle: saline
[17] = dose: 12.5 mg/kg/injection, schedule: Q01DX009 (ip), vehicle: saline
[18] = dose: 25.0 mg/kg/injection, schedule: Q01DX009 (ip), vehicle: saline

Measured: T/C

NC(N)=NS(=O)(=O)c1ccc(N=NC2=C(O)C(c3ccccc3)N(c3ccccc3)C2=O)cc1 (stereo not drawn)
inactive: dose: 100.0 mg/kg/injection, schedule: Q01DX001 (ip), vehicle: saline with Tween-80 102 % of control | dose: 200.0 mg/kg/injection, schedule: Q01DX001 (ip), vehicle: saline with Tween-80 102 % of control | dose: 400.0 mg/kg/injection, schedule: Q01DX001 (ip), vehicle: saline with Tween-80 90 % of control

CN1C=CC2C(C#N)CC2C1=O (stereo not drawn)
inactive: dose: 100.0 mg/kg/injection, schedule: Q04DX002 (ip), vehicle: saline with Tween-80 101 % of control | dose: 200.0 mg/kg/injection, schedule: Q04DX002 (ip), vehicle: saline with Tween-80 110 % of control | dose: 400.0 mg/kg/injection, schedule: Q04DX002 (ip), vehicle: saline with Tween-80 110 % of control

N=c1c2ccccc2nc2n1CCCCCCC2
inactive: dose: 25.0 mg/kg/injection, schedule: Q04DX003 (ip), vehicle: Klucel (hydroxypropylcellulose) (HPC) 103 % of control | dose: 50.0 mg/kg/injection, schedule: Q04DX003 (ip), vehicle: Klucel (hydroxypropylcellulose) (HPC) 91 % of control

C=C(C)[C@@H]1CC[C@]2(C(=O)O)CC[C@@]3(C)[C@]4(C)CC[C@@H]5[C@](C)(CC[C@@H](O)[C@@]5(C)C(=O)O)[C@H]4CC[C@]3(C)[C@@H]12
inactive: dose: 15.0 mg/kg/injection, schedule: Q01DX005 (ip), vehicle: Klucel (hydroxypropylcellulose) (HPC) 104 % of control | dose: 30.0 mg/kg/injection, schedule: Q01DX005 (ip), vehicle: Klucel (hydroxypropylcellulose) (HPC) 117 % of control | dose: 60.0 mg/kg/injection, schedule: Q01DX005 (ip), vehicle: Klucel (hydroxypropylcellulose) (HPC) 117 % of control

Cc1nc2ncn(-c3ccccc3)c2c(=O)n1C
inactive: [1] 95 % of control | [2] 90 % of control | [3] 95 % of control

CN(C)c1nc(N/N=C\C(O)C(O)C(O)C(O)CO)nc(N(C)C)n1 (stereo not drawn)
inactive: dose: 100.0 mg/kg/injection, schedule: Q04DX003 (ip), vehicle: saline with Tween-80 112 % of control | dose: 200.0 mg/kg/injection, schedule: Q04DX003 (ip), vehicle: saline with Tween-80 103 % of control | dose: 400.0 mg/kg/injection, schedule: Q04DX003 (ip), vehicle: saline with Tween-80 102 % of control

Cc1ccc2oc(C(=O)Nc3nnc(-c4ccccc4)s3)cc(=O)c2c1
inactive: [4] 96 % of control | [5] 94 % of control | [6] 94 % of control

COc1ccc(/C=C/C(=O)C(C)(C)CN(C)CCN(C)C)cc1
inactive: [7] 100 % of control | [8] 109 % of control

COc1ccc2c(c1)C(O)C(CO)C(C(=O)O)C2 (stereo not drawn)
inactive: [1] 106 % of control | [2] 101 % of control | [3] 101 % of control

CC(=O)NC(CC(C)C)C(=O)O (stereo not drawn)
inactive: dose: 25.0 mg/kg/injection, schedule: Q01DX009 (ip), vehicle: saline with Tween-80 95 % of control | [9] 86 % of control and 94 % of control | dose: 100.0 mg/kg/injection, schedule: Q01DX009 (ip), vehicle: Klucel (hydroxypropylcellulose) (HPC) 104 % of control | [10] 100 % of control and 105 % of control | dose: 200.0 mg/kg/injection, schedule: Q01DX009 (ip), vehicle: Klucel (hydroxypropylcellulose) (HPC) 114 % of control | [11] 118 % of control | dose: 400.0 mg/kg/injection, schedule: Q01DX009 (ip), vehicle: Klucel (hydroxypropylcellulose) (HPC) 100 % of control | [12] 105 % of control

[Cl][Pd][Cl].[NH-]C(C(=O)OCc1ccccc1)c1ccccc1.[NH-]C(C(=O)OCc1ccccc1)c1ccccc1 (stereo not drawn)
inactive: dose: 6.25 mg/kg/injection, schedule: Q04DX003 (ip), vehicle: saline 100 % of control | dose: 12.5 mg/kg/injection, schedule: Q04DX003 (ip), vehicle: saline 100 % of control | dose: 25.0 mg/kg/injection, schedule: Q04DX003 (ip), vehicle: saline 97 % of control | dose: 100.0 mg/kg/injection, schedule: Q04DX003 (ip), vehicle: saline 108 % of control

CCOC(=O)CCOCOCCC(=O)OCC
inactive: [13] 100 % of control | [14] 115 % of control | [15] 110 % of control

O=C(O)c1cc2ccc3cccc4ccc(c1)c2c34
inactive: [4] 96 % of control | [5] 102 % of control

COC(=O)CCC(=O)Nc1cc(Cl)c(Cl)cc1Cl
inactive: [7] 100 % of control | [8] 93 % of control | dose: 240.0 mg/kg/injection, schedule: Q01DX005 (ip), vehicle: saline with Tween-80 91 % of control

CCN(CC)c1ccc(/C=N/Nc2c3c(nc4ccccc24)CCCC3)cc1
inactive: dose: 6.25 mg/kg/injection, schedule: Q01DX005 (ip), vehicle: saline 100 % of control | dose: 12.5 mg/kg/injection, schedule: Q01DX005 (ip), vehicle: saline 99 % of control

Cc1sc2ccccc2[n+]1CCC(=O)O
inactive: [9] 100 % of control | [10] 100 % of control | [11] 98 % of control | [12] 98 % of control

COC1CCC2C(C1)C(C1CCCCC1)C1CCCCC1C2C1CCCCC1 (stereo not drawn)
inactive: [4] 96 % of control | [5] 93 % of control | [6] 95 % of control

O=C(NC1CCCCC1)O/N=C/c1cccnc1
inactive: [9] 101 % of control | [10] 98 % of control | [11] 93 % of control

NC(=O)CNCc1ccccc1
inactive: [4] 94 % of control | [5] 99 % of control | [6] 94 % of control

Cc1oc2c(C)c3oc(=O)cc(C)c3cc2c1CO
inactive: dose: 100.0 mg/kg/injection, schedule: Q05DX002 (ip), vehicle: Klucel (hydroxypropylcellulose) (HPC) 92 % of control | dose: 200.0 mg/kg/injection, schedule: Q05DX002 (ip), vehicle: Klucel (hydroxypropylcellulose) (HPC) 97 % of control | dose: 400.0 mg/kg/injection, schedule: Q05DX002 (ip), vehicle: Klucel (hydroxypropylcellulose) (HPC) 95 % of control

CCOC(=O)c1nn(C)c2oc(=O)ccc12
inactive: dose: 25.0 mg/kg/injection, schedule: Q01DX005 (ip), vehicle: Klucel (hydroxypropylcellulose) (HPC) 106 % of control | [1] 108 % of control | [2] 104 % of control | [3] 104 % of control

NCCc1ccc(OCc2ccccc2)c(OCc2ccccc2)c1
inactive: [16] 101 % of control and 107 % of control | [17] 108 % of control and 118 % of control | [18] 101 % of control and 109 % of control

OC1CCOC1 (stereo not drawn)
inactive: [16] 95 % of control | [17] 97 % of control | [18] 100 % of control | dose: 50.0 mg/kg/injection, schedule: Q01DX009 (ip), vehicle: saline 101 % of control | [13] 101 % of control | [14] 98 % of control | [15] 94 % of control | dose: 800.0 mg/kg/injection, schedule: Q01DX009 (ip), vehicle: saline 96 % of control

O=C1OC(OCC#CCOC2OC(=O)C(Cl)=C2Cl)C(Cl)=C1Cl (stereo not drawn)
inactive: dose: 15.0 mg/kg/injection, schedule: Q01DX005 (ip), vehicle: saline with Tween-80 112 % of control | dose: 30.0 mg/kg/injection, schedule: Q01DX005 (ip), vehicle: saline with Tween-80 105 % of control | [7] 115 % of control and 93 % of control

CC1CC(=O)c2cc3oc(=O)n(C)c3cc21 (stereo not drawn)
inactive: [1] 105 % of control | [2] 94 % of control
